Tests used:
Hela cells = experiment: Clonogenic survival assay of Hela cells after 4×0.5 Gy irradiation; type: cell-based, human; conditions: 4×0.5 Gy spaced 2 hours, Dbait transfected with Superfect (83 nM or 2 μg)
Method: (§1) Exponentially growing cells in six-well plates were harvested and incubated with […] of complete DMEM containing a mixture of Dbait molecules and Superfect reagent (Qiagen, Courtaboeuf, France) in a ratio of 10 μl Superfect per μg DNA. After 5 h at 37° C. under standard conditions, the cells were washed with PBS and complete DMEM was added. Where indicated, cells were exposed to irradiation either in one session (10 Gy) 5 h after the beginning of transfection or in four sessions of 0.5 Gy administered with a ^137Cs unit (1 Gy/min) 3, 4, 5 and 6 h after the beginning of transfection and allowed to grow for two weeks. When plasmid integration was measured, 2 μg of plasmid was added to Dbait transfection and puromycin (1.7 μg/ml) was added to the growth medium 48 h after transfection. Plasmid transfection efficiency was estimated by analyzing 10,000 cells for GFP expression on a FACScan flow cytometer (FACSalibur, Beckton-Dickinson, USA).
Upon 8 hours transfection of Dbait molecules in Hela cells and four irradiation with 0.5 Gy fractionated irradiation spaced 2 hours (4×0.5 Gy), performed with γ-rays from a ^137Cs source, a significant reduction of clonogenic survival was observed as compared to untransfected cells. The results are given on FIG. 2.1 wherein Panel A gives the dose-dependence of normalized survival clone number in the presence of Dbait32 (SEQ ID NO: 1) and Dbait32H (SEQ ID NO: 1), and Panel B, the normalized survival clone number in the presence of different Dbait molecules at 83 nM (concentration in culture medium). Cell culture was in MEM supplemented with 10% serum. Superfect (Qiagene) was used as transfection agent according to the manufacturer's instruction.
Clonogenic survival was estimated as the number of treated cells forming colonies on the number of untreated cells.

[1] = tested on: DNA end-joining reaction in the nuclear extracts of Hep2 cells; experiment: DNA end-joining assay in Hep2 nuclear extract; type: biochemical, human; conditions: 2 h incubation with various Dbait
Method: DNA end-joining was monitored by incubating ^32P-labeled 605-bp linear DNA fragments with Hep2 nuclear extract in the presence of various Dbait molecules. Ligation products migrate as dimers, trimers or tetramers, starting 605 bp monomer.
Approximately 16% of the ^32P-labeled blunt linear duplex DNA molecules were ligated into dimers and trimers during the first 2 h of incubation. The amount of high molecular weight ligation products increased up to 30% of the total input DNA after 16 h. […] In most experiments, Dbait32H (SEQ ID NO: 1) was added simultaneously with the labeled DNA fragments to the nuclear extract.
Various Dbait molecules were tested for their effect on the cell-free assay by adding the molecules to nuclear extract and incubating for 2 h with the DNA fragments.
(§2) DNA-PK activity was monitored using the kit SignaTECT DNA-dependent Protein Kinase Assay System (Promega, Madison, USA). Increasing amounts of Hep2 nuclear extract (cleaned of endogenous DNA by DEAE-Sepharose filtration) were assayed in the presence of 250 nM Dbait. Extract, biotinylated peptide substrate and various amount of nuclear extract were incubated 5 minutes at 30° C. with (γ-^32P)ATP according to manufacturer indications. The biotinylated substrate was capture on streptavidine membrane, washed and counted in a scintillation counter. Percentage of phosphorylation is calculated by dividing the bound radioactivity by the total count of (γ-^32P)ATP per sample. Reactions (10 μl) were carried out in 60 mM KOAc, 100 μg/ml BSA, 0.5 mM Mg(Cl)2, 1 μl T4 DNA ligase 10× buffer (Promega, Madison, USA). Nuclear extract and Dbait were incubated 2 minutes before addition of ^32P-labeled DNA (10 ng). Samples were incubated various time at 37° C. before ligation being stopped by 20 mM EDTA and 1 mg/ml Proteinase K addition. Ligation products were analyzed by electrophoresis through 0.7% agarose gels followed by autoradiography and quantification by phosphorimaging.

DNA-PK = target: T1, DNA-PK (Homo sapiens, UniProt P12956+P13010+P78527); experiment: DNA-dependent protein kinase (DNA-PK) activity assay in Hep2 nuclear extract; type: biochemical; conditions: 2 μg Dbait, 1.5 μg Hep2 nuclear protein extract
T1 construct: Increasing amounts of Hep2 nuclear extract (cleaned of endogenous DNA by DEAE-Sepharose filtration) were assayed; endogenous in cells; host or cells: Hep2 cells (nuclear extract, DNA removed by DEAE-Sepharose filtration)
Method: as §2
The kinase activity depended directly on the length and structure of the double-stranded ‘stem’ of the Dbait molecule. […] In addition, various backbone modifications (phosphothioate, methyphosphonate, 3′-3′ linkage) at the free blunt end (up to 3-bp), as well as the internally tagged ligands (e.g. fluorescent dyes), are capable of activating DNA-PK activity.

Ku complex = target: T2, Ku complex (Homo sapiens, UniProt P12956+P13010); experiment: Band-shift assay with Hep2 nuclear protein extracts; type: binding; conditions: for retarded bands in band-shift assay: 10 nM 32P radio-labelled Dbait, 0-320 ng/μL Hep2 nuclear proteins, 30° C., 10 minutes
T2 construct: in the presence of nuclear protein extracts from Hep2 cells according to standard protocol; endogenous in cells; host or cells: Hep2 cells (nuclear protein extract)
T2 sequence (P12956 whole entry): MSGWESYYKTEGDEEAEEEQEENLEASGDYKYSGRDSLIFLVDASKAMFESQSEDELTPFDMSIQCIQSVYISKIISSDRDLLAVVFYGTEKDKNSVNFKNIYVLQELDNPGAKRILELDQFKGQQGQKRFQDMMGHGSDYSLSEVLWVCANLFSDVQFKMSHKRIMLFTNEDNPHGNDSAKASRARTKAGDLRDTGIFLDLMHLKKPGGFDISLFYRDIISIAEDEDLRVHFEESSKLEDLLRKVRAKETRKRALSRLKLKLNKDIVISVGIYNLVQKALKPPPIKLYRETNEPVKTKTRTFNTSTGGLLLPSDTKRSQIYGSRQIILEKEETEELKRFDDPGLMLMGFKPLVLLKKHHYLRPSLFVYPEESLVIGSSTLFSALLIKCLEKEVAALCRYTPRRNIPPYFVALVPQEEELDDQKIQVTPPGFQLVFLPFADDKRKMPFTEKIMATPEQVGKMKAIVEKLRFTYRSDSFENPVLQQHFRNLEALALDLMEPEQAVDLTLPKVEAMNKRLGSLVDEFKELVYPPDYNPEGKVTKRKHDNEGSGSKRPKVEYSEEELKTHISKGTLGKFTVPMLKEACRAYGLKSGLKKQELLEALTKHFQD
T2 sequence (P13010 whole entry): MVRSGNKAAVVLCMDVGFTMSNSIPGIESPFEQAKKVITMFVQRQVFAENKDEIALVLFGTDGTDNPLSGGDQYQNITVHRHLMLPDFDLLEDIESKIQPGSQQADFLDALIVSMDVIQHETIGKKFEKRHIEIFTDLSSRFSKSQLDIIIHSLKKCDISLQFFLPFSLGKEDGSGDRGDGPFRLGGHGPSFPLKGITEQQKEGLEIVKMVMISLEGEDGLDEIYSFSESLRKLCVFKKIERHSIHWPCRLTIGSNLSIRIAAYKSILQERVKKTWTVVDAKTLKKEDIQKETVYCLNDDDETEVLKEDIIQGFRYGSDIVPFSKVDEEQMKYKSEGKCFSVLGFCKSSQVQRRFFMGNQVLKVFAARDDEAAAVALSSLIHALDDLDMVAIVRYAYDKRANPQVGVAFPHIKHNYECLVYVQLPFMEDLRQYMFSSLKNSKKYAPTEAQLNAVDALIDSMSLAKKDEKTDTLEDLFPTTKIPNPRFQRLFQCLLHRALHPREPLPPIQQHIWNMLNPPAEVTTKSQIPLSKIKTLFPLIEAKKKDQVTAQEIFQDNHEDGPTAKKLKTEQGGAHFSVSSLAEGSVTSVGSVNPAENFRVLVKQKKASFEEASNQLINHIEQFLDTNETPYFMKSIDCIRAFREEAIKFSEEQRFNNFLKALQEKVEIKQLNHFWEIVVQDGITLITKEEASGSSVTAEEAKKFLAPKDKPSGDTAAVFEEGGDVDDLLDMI
Method: As the first step to dissect the mechanism of action of Dbait molecules, a series of band-shift assays were carried out with different ^32P radio-labelled Dbait molecules in the presence of nuclear protein extracts from Hep2 cells according to standard protocol. Typically, 10 nM ^32P radio-labelled Dbait molecules were incubated in the presence of various concentrations of nuclear proteins (0, 10, 20, 40, 80, 160, and 320 ng/μL) at 30° C. for 10 minutes in TBE buffer. Then the samples were loaded on a 5% acrylamide native gel. The electrophoresis was run at 95V for 2 hours at 4° C. The gel was dried and scanned by phosphorimager (Molecular Dynamics).
For 32-bp Dbait molecules, the intensity of the retarded band 1 increases and then decreases as the concentration of protein increases, while the intensity of the retarded band 2 increases as a function of the concentration of nuclear protein extracts.
It is likely that band 1 has one Ku70/80 complex bound to the 16 to 32-bp Dbait, whereas the band 2 has two Ku70/80 complexes bound to the 32-bp Dbait molecules. Control experiments performed with purified Ku proteins confirmed this interpretation.

[2] = tested on: radiation-enhanced illegitimate integration of a plasmid in Hela cells; experiment: Inhibition of radiation-enhanced illegitimate integration of exogenous DNA; type: cell-based, human; conditions: 2 μg Dbait, fractionated 4×0.5 Gy irradiation
Method: as §1
Ionizing radiation is known to improve illegitimate integration of exogenous DNA, a process termed radiation-enhanced integration. Hela cell culture was used for this assay. Cells were transfected during 8 hours by 2 μg of a linear plasmid carrying the gene coding for neomycin resistance, and three different ratio of DNA/superfect (1:2, 1:5, 1:10). During transfection time, the cells were exposed to different irradiation protocols: no irradiation, one single irradiation of 1 Gy and 2 Gy, as well as a 2 Gy irradiation delivered by fractionated doses of 0.5 Gy every 2 hours (4×0.5 Gy). The integration of the plasmid was monitored by selection of Neo^R cells growing in a medium containing 0.6 mg/ml of G418. […] When 2 μg of Dbait32H (SEQ ID NO: 1) molecules were added to the transfection mix, the radiation-enhanced integration was abolished (FIG. 2.3).
Wortmann (Wort) and NU7026 (NU) which are known inhibitors of PI3K (including DNA-PK) were used as control.

## 5′ACGCACGGGTGTTGGGTCGTTTGTTCGGATCTACGCACGGTCGTTTGTTCGGTGTTGGCGATCT3′ [Dbait64]
Hela cells
  clonogenic survival: significantly reduced clonogenic survival

## Dbait24H: hairpin double strand DNA with a stem of 24-bp (DNA ACGCACGGGTGTTGGGTCGTTTGT; DNA, backbone not given here; hairpin DNA with hexaethyleneglycol loop, 3-bp phosphorothioate at free blunt end)
Hela cells
  clonogenic survival: significantly reduced clonogenic survival
[1]
  ligation of DNA fragments in cell-free assay: inhibited the ligation as efficiently as Dbait32H
DNA-PK
  DNA-PK activation (kinase activity): inefficient
Ku complex
  retarded bands in band-shift assay: One retarded band
Ku complex; Hep2 nuclear extract, band-shift
  binding of Ku: bound only one Ku dimer

## 5′ACGCACGGGTGTTGGGTCGTTTGTTCGGATCT ACGCACGGTCGTTTGTTCGGTGTTGGCGATCT3′ [Dbait64L]
Hela cells
  clonogenic survival: significantly reduced clonogenic survival

## Dbait32H-po: full length phosphodiester Dbait32H (DNA ACGCACGGGTGTTGGGTCGTTTGTTCGGATCT; DNA, phosphodiester; hairpin DNA closed by hexaethyleneglycol loop)
Ku complex
  retarded bands in band-shift assay: two retarded band

## Dbait32C: dumbbell 32-bp double strand DNA (without free blunt end) (DNA ACGCACGGGTGTTGGGTCGTTTGTTCGGATCT; DNA, backbone not given here; dumbbell duplex DNA, both ends closed by hexaethyleneglycol loops)
[2]
  radiation-enhanced illegitimate integration of plasmid (puromycin resistance): not effective
[1]
  ligation of DNA fragments in cell-free assay: largely unaffected

## Dbait32-T4: contains four thymines (T4) as a linker instead of a hexaethyleneglycol linker (DNA ACGCACGGGTGTTGGGTCGTTTGTTCGGATCT; DNA, backbone not given here; hairpin DNA with four-thymine loop, 3-bp phosphorothioate at free blunt end)
Hela cells
  clonogenic survival: significantly reduced clonogenic survival

— patent publication US7476729B2, “Dbait and uses thereof” (Institut Curie, priority 2003, dated 2009)
